Data on seven molecules can be found in ChEMBL document CHEMBL4813952, “Axial Chiral Binaphthoquinone and Perylenequinones from the Stromata of Hypocrella bambusae Are SARS-CoV-2 Entry Inhibitors” (J Nat Prod, 2021).

Series [1] addresses Spike glycoprotein (Severe acute respiratory syndrome coronavirus 2) (UniProt P0DTC2). Nature of the series: Inhibition of spike glycoprotein S in SARS-CoV-2 pseudovirus infected in human 293T/ACE2 cells assessed as inhibition of viral infection. The series is classed as cell-based.
Series [2] in a line: Cytotoxicity against human 293T/ACE2 cells measured after 48 hrs by CCK8 assay. The series is classed as cell-based.
Series [3] relates to SARS-CoV-2. The series can be described thus: Antiviral activity against SARS-CoV-2 Wuhan-HU-1 infection on African green monkey Vero E6 cells assessed by drecrease in viral nucleocapsid N-protein expression at 20 uM measured after 48 hrs by DAPI staining based immunofluorescence microscopy. In kind it is functional, organism-based. The settings on record: Severe acute respiratory syndrome coronavirus 2.

The subject of series [4] is SARS-CoV-2. The series can be described thus: Antiviral activity against SARS-CoV-2 Wuhan-HU-1 infected in African green monkey Vero E6 cells assessed as inhibition of viral infection when cells were preincubated for 1 hr followed by viral infection measured after 24 hrs by qPCR analysis. In kind it is functional, organism-based. Conditions: Severe acute respiratory syndrome coronavirus 2, Wuhan-HU-1, Vero C1008. Background: In qPCR the cycle at which signal appears reflects the starting amount.

In a further series the test system is Vero C1008. Nature of the series: Cytotoxicity against African Green monkey Vero E6 cells at 10 uM measured after 24 to 48 hrs by CCK8 assay. In kind it is cell-based. The settings on record: chlorocebus sabaeus, vero c1008, 10 µM, time 24-48 hrs. Background: Formazan colour is commonly taken as a measure of viable cells.
Series [5] concerns SARS-CoV-2. Nature of the series: Antiviral activity against SARS-CoV-2 Wuhan-HU-1 infection on African green monkey Vero E6 cells assessed by drecrease in viral nucleocapsid N-protein expression measured after 48 hrs by DAPI staining based immunofluorescence microscopy. The series is classed as functional, organism-based. The settings on record: Severe acute respiratory syndrome coronavirus 2, dose 0.08-2.2 µM.

The target in the next series is Spike glycoprotein (Severe acute respiratory syndrome coronavirus 2, UniProt P0DTC2). The series can be described thus: Binding affinity to SARS-CoV-2 spike glycoprotein S RBD at 25 degreeC by surface plasmon resonance assay. For orientation: In SPR one partner is held on a chip, and binding of the other changes the refractive index at the surface.
For series [6], the target named is Spike glycoprotein (Severe acute respiratory syndrome coronavirus 2) (UniProt P0DTC2). The series can be described thus: Inhibition of SARS-CoV-2 spike glycoprotein S expressed in human HEK293T cells cotransfected with pAAV-IRES-GFP assessed as inhibition of membrane fusion to African green monkey Vero E6 cells causing suppression of syncytium formation at 2 uM preincubated for 30 mins measured after 24 hrs by cell-cell fusion based fluorescence microscopy. The settings on record: time 24.5 hrs.

The source made the active and inactive calls. The calls are words filed in the database; no cut-off is given here.

For orientation: CC50 means the concentration at which the toxic effect on the cells reaches its halfway point. Consider `COC1=C2c3c4c5c(c(O)cc(OC)c5c5c(OC)cc(O)c(c35)C1=O)C(=O)[C@@H](OC)[C@@]41C[C@](C)(O)[C@@H]2[C@]1(C)O`, for which the inhibition result in series [1] was “inactive”. Moreover, the CC50 at 48 h in series [2] was greater than 10000 nM.

With `COC1=C(CC(C)=O)C(=O)c2c(c(O)cc(OC)c2-c2c(OC)cc(O)c3c2C(=O)C(CC(C)=O)=C(OC)C3=O)C1=O`, the inhibition result in series [1] is “inactive”. In series [2], the CC50 at 48 h is greater than 10000 nM. Moreover, the outcome in the series on SARS-CoV-2 [3] was inactive.

In the case of `COc1c2c3c4c(c(OC)c(=O)c5c(O)cc(OC)c(c6c(OC)ccc(c1=O)c63)c54)CC(C)=C2C(C)=O`, the inhibition result in series [1] is “inactive”. Moreover, the CC50 at 48 h in series [2] was greater than 10000 nM.

For orientation: EC50 means the concentration needed to bring the measured effect to its halfway point. One may read the Kd as the concentration at which binding is half-saturated. In the case of `COc1c2c3c4c(c(OC)c(=O)c5c(O)cc(OC)c(c6c(OC)cc(O)c(c1=O)c63)c54)[C@@H](C(C)=O)[C@@](C)(O)C2` [HYPOCRELLIN A], the inhibition result in series [1] and in series [6] was “inactive” each time. Further, in the series on SARS-CoV-2 [4], the EC50 stood at 220 nM. The CC50 at 48 h in series [2] turned out to be 2000 nM. The results for the Activity result with Vero C1008 and with SARS-CoV-2 [5] were “Non-Toxic” and “Dose-Dependent Effect”, respectively. This molecule had a Kd on Spike glycoprotein of 37.9 nM.

In the case of `COC1=CC(=O)c2c(O)c(OC)c3c(c2C1=O)-c1c(c(OC)c(O)c2c1C(=O)C(OC)=CC2O)C[C@](C)(O)[C@@H]3C(C)=O` (stereo not given in full), in series [1], the inhibition entry is “inactive”. This molecule registered a CC50 at 48 h in series [2] greater than 10000 nM.

`COC1=C2c3c4c5c(c(O)cc(OC)c5c5c(OC)cc(O)c(c35)C1=O)C(=O)[C@@H](OC)[C@@]41C[C@](C)(O)[C@@H]2[C@@]1(C)O`: the inhibition result in series [1] was “inactive”. Moreover, the CC50 at 48 h in series [2] is greater than 10000 nM.

As for `COc1c(O)c2c(=O)cc(OC)c3c4c(OC)cc(=O)c5c(O)c(OC)c6c(c(c1C[C@](C)(O)[C@H]6C(C)=O)c23)c54`, the inhibition entry in series [1] and in series [6] was “inactive” in each case. In the series with SARS-CoV-2 [4], the EC50 is 210 nM. In series [2], this molecule yielded a CC50 at 48 h of 2500 nM. Further, the Activity result was “Non-Toxic” with Vero C1008 and “Dose-Dependent Effect” with SARS-CoV-2 [5]. For the same molecule, on Spike glycoprotein, the Kd is 22.8 nM.
